# Experimental data as given in patent US4650801A, “Anti-cancer compositions for delivering 5-fluorouracil” (Taiho Pharmaceutical Company, Ltd., priority 1978, dated 1987).
# Where two headings read alike, the source gives them in different places.
# Key:
# [1] = tested on: sarcoma 180; type: in vivo
# Procedure: (§1) The anti-cancer compositions of this invention are tested in mice by the following methods to determine acute toxicity, anti-cancer effect and therapeutic index
# (§2) Male mice of ICR strain weighing 22±1 g are used, 5 mice in each group. A 5-fluorouracil (a) and uracil derivative (b) in the proportions listed in Tables 1-16 are suspended in a 5% solution of gum arabic to prepare a suspension, which is forcibly orally administered to each mouse through a tube at a dose of 1 ml/100 g. Over the following period of three weeks the mice are checked every day for poisoning, body weight and mortality. The LD50 is determined according to the up-and-down method 3 weeks after the administration.
# Tissues of sarcoma 180, 2×10^6, are subcutaneously transplanted in the back of male mice of ICR strain (6 mice in each group). A 5-fluorouracil (a) and uracil derivative (b) in the proportions listed in Tables 1-16 are suspended in a 5% solution of gum arabic to prepare a suspension. Twenty-four hours after the transplantation and during the following seven consecutive days the suspension is orally given to the animal once every day.
# The LD50 and ED50 values obtained above are used to determine the therapeutic index (LD50 /ED50).
# [2] = tested on: male mice of ICR strain; assay: in vivo; conditions: 30240 min
# Procedure: as §1, §2
# [3] = in vivo; conditions: mouse, in vivo, po
# Procedure: as §1, §2
# [4] = (b) = 1(2-Tetrahydrofuryl)uracil, (b)/(a) mol ratio 1
# [5] = (b) = 1(2-Tetrahydrofuryl)uracil, (b)/(a) mol ratio 2
# [6] = (b) = 1(2-Tetrahydrofuryl)uracil, (b)/(a) mol ratio 5
# [7] = (b) = 1Acetyluracil, (b)/(a) mol ratio 1
# [8] = (b) = 1Acetyluracil, (b)/(a) mol ratio 2
# [9] = (b) = 1Acetyluracil, (b)/(a) mol ratio 5
# [10] = (b) = 1Cyclohexylcarbamoyluracil, (b)/(a) mol ratio 0.5
# [11] = (b) = 1Cyclohexylcarbamoyluracil, (b)/(a) mol ratio 2
# [12] = (b) = 1Cyclohexylcarbamoyluracil, (b)/(a) mol ratio 5
# [13] = (b) = 1n-Hexylcarbamoyluracil, (b)/(a) mol ratio 1
# [14] = (b) = 1n-Hexylcarbamoyluracil, (b)/(a) mol ratio 2
# [15] = (b) = 1n-Hexylcarbamoyluracil, (b)/(a) mol ratio 10
# [16] = (b) = 2'-Deoxycytidine, (b)/(a) mol ratio 1
# [17] = (b) = 2'-Deoxycytidine, (b)/(a) mol ratio 2
# [18] = (b) = 2'-Deoxycytidine, (b)/(a) mol ratio 10
# [19] = (b) = 2'-Deoxyuridine, (b)/(a) mol ratio 1
# [20] = (b) = 2'-Deoxyuridine, (b)/(a) mol ratio 2
# [21] = (b) = 2'-Deoxyuridine, (b)/(a) mol ratio 20
# [22] = (b) = 3Benzoyluracil, (b)/(a) mol ratio 1
# [23] = (b) = 3Benzoyluracil, (b)/(a) mol ratio 2
# [24] = (b) = 3Benzoyluracil, (b)/(a) mol ratio 10
# [25] = (b) = 5Bromo-2'-deoxyuridine, (b)/(a) mol ratio 0.5
# [26] = (b) = 5Bromo-2'-deoxyuridine, (b)/(a) mol ratio 2
# [27] = (b) = 5Bromo-2'-deoxyuridine, (b)/(a) mol ratio 10
# [28] = (b) = 5Bromouracil, (b)/(a) mol ratio 0.5
# [29] = (b) = 5Bromouracil, (b)/(a) mol ratio 2
# [30] = (b) = 5Bromouracil, (b)/(a) mol ratio 10
# [31] = (b) = 5Iodouracil, (b)/(a) mol ratio 1
# [32] = (b) = 5Iodouracil, (b)/(a) mol ratio 2
# [33] = (b) = 5Iodouracil, (b)/(a) mol ratio 5
# [34] = (b) = Cytidine, (b)/(a) mol ratio 2
# [35] = (b) = Cytidine, (b)/(a) mol ratio 10
# [36] = (b) = Cytosine, (b)/(a) mol ratio 10
# [37] = (b) = Orotic acid, (b)/(a) mol ratio 1
# [38] = (b) = Orotic acid, (b)/(a) mol ratio 2
# [39] = (b) = Orotic acid, (b)/(a) mol ratio 20
# [40] = (b) = Thymidine, (b)/(a) mol ratio 0.5
# [41] = (b) = Thymidine, (b)/(a) mol ratio 2
# [42] = (b) = Thymidine, (b)/(a) mol ratio 10
# [43] = (b) = Thymine, (b)/(a) mol ratio 0.5
# [44] = (b) = Thymine, (b)/(a) mol ratio 2
# [45] = (b) = Thymine, (b)/(a) mol ratio 10
# [46] = (b) = Uridine, (b)/(a) mol ratio 1
# [47] = (b) = Uridine, (b)/(a) mol ratio 2
# [48] = (b) = Uridine, (b)/(a) mol ratio 20
structure (smiles),measurement,setting,value
"O=c1[nH]cc(F)c(=O)n1C1CCCO1 (stereo not shown) [Compound 6, 3-(2-Tetrahydrofuryl)-5-fluorouracil]",Therapeutic Index (LD50/ED50),[1]; [4],17.1
same,Therapeutic Index (LD50/ED50),[1]; [5],22.4
same,Therapeutic Index (LD50/ED50),[1]; [6],29.7
same,Therapeutic Index (LD50/ED50),[1]; [7],21.9
same,Therapeutic Index (LD50/ED50),[1]; [8],18.0
same,Therapeutic Index (LD50/ED50),[1]; [9],15.4
same,Therapeutic Index (LD50/ED50),[1]; [10],15.1
same,Therapeutic Index (LD50/ED50),[1]; [11],15.1
same,Therapeutic Index (LD50/ED50),[1]; [12],17.5
same,Therapeutic Index (LD50/ED50),[1]; [13],15.7
same,Therapeutic Index (LD50/ED50),[1]; [14],20.6
same,Therapeutic Index (LD50/ED50),[1]; [15],16.8
same,Therapeutic Index (LD50/ED50),[1]; [16],15.7
same,Therapeutic Index (LD50/ED50),[1]; [17],17.9
same,Therapeutic Index (LD50/ED50),[1]; [18],20.0
same,Therapeutic Index (LD50/ED50),[1]; [19],15.9
same,Therapeutic Index (LD50/ED50),[1]; [20],18.8
same,Therapeutic Index (LD50/ED50),[1]; [21],20.2
same,Therapeutic Index (LD50/ED50),[1]; [22],18.3
same,Therapeutic Index (LD50/ED50),[1]; [23],20.7
same,Therapeutic Index (LD50/ED50),[1]; [24],17.9
same,Therapeutic Index (LD50/ED50),[1]; [25],13.1
same,Therapeutic Index (LD50/ED50),[1]; [26],15.9
same,Therapeutic Index (LD50/ED50),[1]; [27],14.0
same,Therapeutic Index (LD50/ED50),[1]; [28],19.1
same,Therapeutic Index (LD50/ED50),[1]; [29],22.1
same,Therapeutic Index (LD50/ED50),[1]; [30],19.6
same,Therapeutic Index (LD50/ED50),[1]; [31],18.0
same,Therapeutic Index (LD50/ED50),[1]; [32],22.4
same,Therapeutic Index (LD50/ED50),[1]; [33],17.6
same,Therapeutic Index (LD50/ED50),"[1]; (b) = Cytidine, (b)/(a) mol ratio 1",17.6
same,Therapeutic Index (LD50/ED50),[1]; [34],23.8
same,Therapeutic Index (LD50/ED50),[1]; [35],22.7
same,Therapeutic Index (LD50/ED50),"[1]; (b) = Cytosine, (b)/(a) mol ratio 1",18.2
same,Therapeutic Index (LD50/ED50),"[1]; (b) = Cytosine, (b)/(a) mol ratio 2",24.9
same,Therapeutic Index (LD50/ED50),[1]; [36],26.6
same,Therapeutic Index (LD50/ED50),[1]; [37],14.8
same,Therapeutic Index (LD50/ED50),[1]; [38],15.9
same,Therapeutic Index (LD50/ED50),[1]; [39],17.5
same,Therapeutic Index (LD50/ED50),[1]; [40],14.4
same,Therapeutic Index (LD50/ED50),[1]; [41],14.1
same,Therapeutic Index (LD50/ED50),[1]; [42],10.7
same,Therapeutic Index (LD50/ED50),[1]; [43],-17.3
same,Therapeutic Index (LD50/ED50),[1]; [44],19.9
same,Therapeutic Index (LD50/ED50),[1]; [45],23.1
same,Therapeutic Index (LD50/ED50),[1]; [46],22.0
same,Therapeutic Index (LD50/ED50),[1]; [47],26.3
same,Therapeutic Index (LD50/ED50),[1]; [48],20.6
same,Therapeutic Index (LD50/ED50),[1]; (b)/(a) mol ratio 0 (alone),13.1
same,LD50,[2]; [11],694 mg/kg
same,LD50,[2]; [18],680 mg/kg
same,LD50,[2]; [32],380 mg/kg
same,LD50,[2]; [37],1020 mg/kg
same,LD50 at 504 h,[3]; [4],874 mg/kg
same,LD50 at 504 h,[3]; [5],650 mg/kg
same,LD50 at 504 h,[3]; [6],535 mg/kg
same,LD50 at 504 h,[3]; [7],702 mg/kg
same,LD50 at 504 h,[3]; [8],468 mg/kg
same,LD50 at 504 h,[3]; [9],246 mg/kg
same,LD50 at 504 h,[3]; [10],833 mg/kg
same,LD50 at 504 h,[3]; [12],576 mg/kg
same,LD50 at 504 h,[3]; [13],928 mg/kg
same,LD50 at 504 h,[3]; [14],844 mg/kg
same,LD50 at 504 h,[3]; [15],469 mg/kg
same,LD50 at 504 h,[3]; [16],928 mg/kg
same,LD50 at 504 h,[3]; [17],843 mg/kg
same,LD50 at 504 h,[3]; [19],845 mg/kg
same,LD50 at 504 h,[3]; [20],790 mg/kg
same,LD50 at 504 h,[3]; [21],525 mg/kg
same,LD50 at 504 h,[3]; [22],768 mg/kg
same,LD50 at 504 h,[3]; [23],663 mg/kg
same,LD50 at 504 h,[3]; [24],448 mg/kg
same,LD50 at 504 h,[3]; [25],640 mg/kg
same,LD50 at 504 h,[3]; [26],478 mg/kg
same,LD50 at 504 h,[3]; [27],308 mg/kg
same,LD50 at 504 h,[3]; [28],745 mg/kg
same,LD50 at 504 h,[3]; [29],575 mg/kg
same,LD50 at 504 h,[3]; [30],412 mg/kg
same,LD50 at 504 h,[3]; [31],467 mg/kg
same,LD50 at 504 h,[3]; [33],194 mg/kg
same,LD50 at 504 h,[3]; [34],928 mg/kg
same,LD50 at 504 h,[3]; [35],773 mg/kg
same,LD50 at 504 h,[3]; [36],639 mg/kg
same,LD50 at 504 h,[3]; [38],969 mg/kg
same,LD50 at 504 h,[3]; [39],806 mg/kg
same,LD50 at 504 h,[3]; [40],963 mg/kg
same,LD50 at 504 h,[3]; [41],886 mg/kg
same,LD50 at 504 h,[3]; [42],639 mg/kg
same,LD50 at 504 h,[3]; [43],830 mg/kg
same,LD50 at 504 h,[3]; [44],537 mg/kg
same,LD50 at 504 h,[3]; [45],324 mg/kg
same,LD50 at 504 h,[3]; [46],945 mg/kg
same,LD50 at 504 h,[3]; [47],815 mg/kg
same,LD50 at 504 h,[3]; [48],597 mg/kg
